# The source made the active and inactive calls.
# Assays:
# Large T antigen = Large T antigen (Simian virus 40, UniProt P03070); assay type: functional, Betapolyomavirus macacae;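 further: Confirmatory-stage PubChem screen for compounds that inhibit SV40 T antigen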
# [1] = target: Beta-2 adrenergic receptor (Homo sapiens, UniProt P07550); assay: beta2AR agonists driving receptor internalization, dose response, cell-based, FAP fluorogen, flow cytometry, cherry pick 1 (AID 588763); assay type: functional
# Beta-2 adrenergic receptor, sequence (P07550 whole entry): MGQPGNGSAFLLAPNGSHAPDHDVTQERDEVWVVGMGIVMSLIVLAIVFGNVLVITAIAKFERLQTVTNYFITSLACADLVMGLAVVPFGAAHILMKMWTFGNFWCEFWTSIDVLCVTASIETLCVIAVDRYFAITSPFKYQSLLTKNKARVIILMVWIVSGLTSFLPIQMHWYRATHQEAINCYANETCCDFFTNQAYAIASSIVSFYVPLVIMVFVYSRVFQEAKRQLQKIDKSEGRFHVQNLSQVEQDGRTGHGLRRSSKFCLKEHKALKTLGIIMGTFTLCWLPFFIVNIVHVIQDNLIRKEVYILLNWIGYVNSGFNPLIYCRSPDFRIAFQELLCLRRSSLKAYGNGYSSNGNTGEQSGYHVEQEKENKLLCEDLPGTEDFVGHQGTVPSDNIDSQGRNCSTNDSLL
# [2] = HepG2 cell cytotoxicity, dose response, cytotoxicity control for Shn3 inhibitor project, CellTiter-Glo, cherry-picked (AID 624134); assay type: functional, cell-based
# HEK293 [3] = assay: inhibitors of LMP1-driven NF-kB reporter, dose response, cell-based, HEK293, luciferase, cherry-pick (AID 588343); assay type: functional; details: Homo sapiens
# [4] = Shn3 3'UTR reporter inhibitors, dose response, cell-based, Clone20 osteoblasts, firefly luciferase, cherry-picked (AID 624132); assay type: functional;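 further: firefly luciferase luminescence from reporter carrying the Shn3 3'UTR in osteoblasts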
# [5] = target: Latent membrane protein 1 (Human herpesvirus 4 (strain B95-8), UniProt P03230); assay: TES1-eGFP NF-kB reporter inhibition versus Tet-On dsRED, dose response, selectivity assay for LMP1 NF-kB inhibitor project, imaging, HEK293T, dual-color eGFP/dsRED, cherry-picks (AID 588398); assay type: functional, cell-based
# Latent membrane protein 1, sequence (P03230 whole entry): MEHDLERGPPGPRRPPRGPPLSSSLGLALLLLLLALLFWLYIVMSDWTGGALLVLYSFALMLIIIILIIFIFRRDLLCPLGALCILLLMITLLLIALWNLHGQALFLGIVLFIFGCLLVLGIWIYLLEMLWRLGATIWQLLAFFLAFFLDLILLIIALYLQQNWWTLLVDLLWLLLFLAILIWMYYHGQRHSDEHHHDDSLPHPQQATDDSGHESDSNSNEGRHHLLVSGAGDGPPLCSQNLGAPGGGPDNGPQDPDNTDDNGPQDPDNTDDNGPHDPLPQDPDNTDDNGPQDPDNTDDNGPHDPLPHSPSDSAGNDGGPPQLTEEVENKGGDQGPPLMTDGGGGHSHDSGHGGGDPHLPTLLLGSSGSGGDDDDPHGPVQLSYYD
# [6] = target: T1, Apoptotic protease-activating factor 1 (Homo sapiens, UniProt O14727); assay type: functional
# T1 sequence (O14727 whole entry): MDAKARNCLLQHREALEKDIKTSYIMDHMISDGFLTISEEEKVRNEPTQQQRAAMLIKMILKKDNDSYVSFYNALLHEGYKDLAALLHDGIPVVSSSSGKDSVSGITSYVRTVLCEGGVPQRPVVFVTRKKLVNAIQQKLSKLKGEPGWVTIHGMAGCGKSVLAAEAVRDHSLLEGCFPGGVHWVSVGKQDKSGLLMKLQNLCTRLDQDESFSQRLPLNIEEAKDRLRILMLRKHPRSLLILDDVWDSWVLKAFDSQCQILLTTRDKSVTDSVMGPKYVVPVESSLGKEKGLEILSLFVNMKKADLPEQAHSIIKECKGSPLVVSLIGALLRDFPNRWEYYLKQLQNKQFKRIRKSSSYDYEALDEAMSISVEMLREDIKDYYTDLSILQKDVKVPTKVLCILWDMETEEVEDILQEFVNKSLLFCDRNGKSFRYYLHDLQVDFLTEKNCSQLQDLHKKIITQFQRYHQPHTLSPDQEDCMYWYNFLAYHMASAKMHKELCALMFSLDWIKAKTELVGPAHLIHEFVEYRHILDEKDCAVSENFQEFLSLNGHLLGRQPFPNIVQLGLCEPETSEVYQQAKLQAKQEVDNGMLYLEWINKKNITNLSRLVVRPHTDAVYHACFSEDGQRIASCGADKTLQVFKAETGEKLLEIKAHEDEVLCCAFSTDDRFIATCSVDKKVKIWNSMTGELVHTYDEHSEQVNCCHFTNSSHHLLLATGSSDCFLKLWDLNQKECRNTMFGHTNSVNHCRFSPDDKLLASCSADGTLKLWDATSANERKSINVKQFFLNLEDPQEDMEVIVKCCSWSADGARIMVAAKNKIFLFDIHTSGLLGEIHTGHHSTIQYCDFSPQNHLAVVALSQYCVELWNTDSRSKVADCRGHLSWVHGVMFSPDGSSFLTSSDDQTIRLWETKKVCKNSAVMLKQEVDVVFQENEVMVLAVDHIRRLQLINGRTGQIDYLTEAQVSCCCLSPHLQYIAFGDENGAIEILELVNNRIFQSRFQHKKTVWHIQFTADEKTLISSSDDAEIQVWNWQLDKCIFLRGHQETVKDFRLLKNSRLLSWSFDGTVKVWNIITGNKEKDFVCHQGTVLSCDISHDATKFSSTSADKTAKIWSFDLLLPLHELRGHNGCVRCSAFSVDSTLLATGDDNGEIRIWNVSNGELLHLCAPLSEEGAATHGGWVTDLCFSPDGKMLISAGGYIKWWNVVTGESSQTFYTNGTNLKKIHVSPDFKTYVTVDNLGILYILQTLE
# [7] = target: T2, Nuclear receptor subfamily 0 group B member 1 (Homo sapiens, UniProt P51843); assay: Luminescence-based cell-based high throughput dose response assay for inhibitors of the orphan nuclear receptor subfamily 0, group B, member 1 (DAX1; NR0B1). [Related pubchem assays (depositor defined):AID504766, AID504790]; assay type: functional
# T2 sequence (P51843 whole entry): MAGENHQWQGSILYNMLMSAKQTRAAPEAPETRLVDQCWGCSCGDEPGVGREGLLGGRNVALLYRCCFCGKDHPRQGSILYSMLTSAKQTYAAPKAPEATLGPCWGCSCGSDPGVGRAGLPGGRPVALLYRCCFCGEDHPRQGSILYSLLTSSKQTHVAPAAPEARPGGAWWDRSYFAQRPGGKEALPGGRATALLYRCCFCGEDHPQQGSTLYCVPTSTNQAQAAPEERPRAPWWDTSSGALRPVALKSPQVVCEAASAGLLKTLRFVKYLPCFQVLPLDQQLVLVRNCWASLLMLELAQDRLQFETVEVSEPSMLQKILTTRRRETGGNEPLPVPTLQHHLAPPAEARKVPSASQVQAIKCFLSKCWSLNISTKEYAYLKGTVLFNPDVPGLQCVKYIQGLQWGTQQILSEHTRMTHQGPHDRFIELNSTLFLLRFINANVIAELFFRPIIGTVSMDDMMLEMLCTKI
# HEK293 [8] = assay: cells; assay type: functional, cell-based; details: Homo sapiens
# Trypsin = Trypsin (Sus scrofa, UniProt P00761); assay: porcine trypsin inhibitors, dose response, selectivity assay for Rce1 protease inhibitor project, biochemical, quenched peptide fluorescence, cherry-pick (AID 488789)
# Trypsin, sequence (P00761 whole entry): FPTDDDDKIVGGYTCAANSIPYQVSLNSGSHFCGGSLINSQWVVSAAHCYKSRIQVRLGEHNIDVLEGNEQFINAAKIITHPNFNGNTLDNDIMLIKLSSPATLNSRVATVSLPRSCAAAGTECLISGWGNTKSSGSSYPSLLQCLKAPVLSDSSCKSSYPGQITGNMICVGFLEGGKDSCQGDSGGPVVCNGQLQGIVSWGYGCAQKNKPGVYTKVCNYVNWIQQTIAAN
# CAAX prenyl protease 2 [9] = target: CAAX prenyl protease 2 (Homo sapiens, UniProt Q9Y256); assay: human Rce1 protease inhibitors, dose response, biochemical, yeast membranes, quenched-peptide fluorescence, cherry-pick (AID 588849)
# CAAX prenyl protease 2 (Homo sapiens, UniProt Q9Y256), sequence (Q9Y256 whole entry): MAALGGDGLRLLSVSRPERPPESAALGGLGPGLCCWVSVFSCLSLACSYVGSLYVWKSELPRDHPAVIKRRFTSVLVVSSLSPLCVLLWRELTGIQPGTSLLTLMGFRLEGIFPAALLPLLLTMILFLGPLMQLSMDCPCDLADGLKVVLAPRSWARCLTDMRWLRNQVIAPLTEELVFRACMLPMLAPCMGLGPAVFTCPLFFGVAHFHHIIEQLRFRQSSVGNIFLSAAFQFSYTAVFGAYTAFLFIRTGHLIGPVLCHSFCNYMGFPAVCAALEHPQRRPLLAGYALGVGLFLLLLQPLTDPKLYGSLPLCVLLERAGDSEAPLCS
# CAAX prenyl protease 2 [10] = target: CAAX prenyl protease 2 (Saccharomyces cerevisiae S288c, UniProt Q03530); assay type: biochemical
# CAAX prenyl protease 2 (Saccharomyces cerevisiae S288c, UniProt Q03530), sequence (Q03530 whole entry): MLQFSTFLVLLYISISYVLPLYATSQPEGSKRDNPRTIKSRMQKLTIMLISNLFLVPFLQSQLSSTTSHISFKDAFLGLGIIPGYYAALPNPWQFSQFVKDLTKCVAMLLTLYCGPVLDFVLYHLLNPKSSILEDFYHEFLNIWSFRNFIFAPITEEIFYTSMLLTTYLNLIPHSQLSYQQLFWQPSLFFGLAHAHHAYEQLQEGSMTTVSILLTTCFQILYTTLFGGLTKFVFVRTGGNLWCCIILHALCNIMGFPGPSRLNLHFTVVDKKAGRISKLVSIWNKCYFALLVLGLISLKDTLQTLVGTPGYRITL
# [11] = growth suppression of beta-catenin-knockout colon cells, dose response, cell-based, HCT116, human colon tumor (AID 1045); assay type: functional;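 further: HCT116 colon tumor cells with beta catenin knocked out; cells exposed to compound for 60 hours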
# [12] = Luminescence Cell-Based Dose Retest to Confirm Inhibitors of Cancer Stem Cells. [Related pubchem assays (depositor defined):AID2717, AID2721]; assay type: functional; details: Homo sapiens
# [13] = growth suppression of PTEN-null colon cells, dose response, cell-based, HCT116 PTEN knockout (AID 1047); assay type: functional;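 further: HCT116 colon tumor cells with PTEN knocked out; cells exposed to compound for 60 hours before readout; potency for loss of cell viability measured by luminescence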
# [14] = microbe, parasite or virus in culture; assay type: functional; details: Mycobacterium tuberculosis
# Protein skinhead-1 = target: T3, Protein skinhead-1 (Caenorhabditis elegans, UniProt P34707); assay type: functional
# T3 sequence (P34707 whole entry): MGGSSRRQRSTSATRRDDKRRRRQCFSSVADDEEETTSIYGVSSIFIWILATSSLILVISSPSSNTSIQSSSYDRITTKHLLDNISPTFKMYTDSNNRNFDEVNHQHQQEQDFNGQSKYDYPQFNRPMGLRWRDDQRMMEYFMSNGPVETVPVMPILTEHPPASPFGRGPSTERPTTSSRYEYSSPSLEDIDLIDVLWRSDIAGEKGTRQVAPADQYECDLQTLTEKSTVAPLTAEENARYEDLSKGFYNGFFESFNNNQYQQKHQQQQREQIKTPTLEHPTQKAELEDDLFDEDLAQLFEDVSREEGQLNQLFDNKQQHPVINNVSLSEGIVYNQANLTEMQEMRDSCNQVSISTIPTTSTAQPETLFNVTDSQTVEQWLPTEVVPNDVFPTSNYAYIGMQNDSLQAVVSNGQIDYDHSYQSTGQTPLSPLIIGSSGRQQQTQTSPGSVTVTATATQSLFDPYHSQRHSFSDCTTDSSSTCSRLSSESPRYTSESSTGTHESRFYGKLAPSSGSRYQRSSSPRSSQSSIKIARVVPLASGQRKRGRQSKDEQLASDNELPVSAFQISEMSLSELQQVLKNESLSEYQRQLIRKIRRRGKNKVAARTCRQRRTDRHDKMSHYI
# [15] = control 3'UTR Renilla luciferase suppression, dose response, counter-screen for Shn3 inhibitor project, cell-based, Clone20-Shn3RL, cherry-picked (AID 624133); assay type: functional
# [16] = Luminescence Cell-Based Dose Confirmation HTS to Identify Inhibitors of Platelet Dense Granule Release. [Related pubchem assays: 1663 (Primary HTS), 1678 (Summary of Project)]; assay type: functional
# [17] = reduction of Shn3 3'UTR firefly luciferase signal, dose response, Schnurri-3 inhibitor project, cell-based, Clone20 osteoblasts, cherry-pick, set 2 (AID 720490); assay type: functional;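 further: actives lower the luminescence signal as inhibitors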
# [18] = inhibitors of clade B AD8 Env fusion, dose response, cell-based, cherry-pick (AID 652062); assay type: functional;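 further: luciferase signal from cell-cell fusion driven by HIV-1 clade B AD8 Env; potency is for inhibitors of fusion seen as a drop in luminescence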
# [19] = target: Luciferin 4-monooxygenase (Photinus pyralis, UniProt P08659); assay: firefly luciferase enzyme inhibitors, dose response, biochemical, luminescence (AID 1891)
# Luciferin 4-monooxygenase, sequence (P08659 whole entry, the tested form may be a part): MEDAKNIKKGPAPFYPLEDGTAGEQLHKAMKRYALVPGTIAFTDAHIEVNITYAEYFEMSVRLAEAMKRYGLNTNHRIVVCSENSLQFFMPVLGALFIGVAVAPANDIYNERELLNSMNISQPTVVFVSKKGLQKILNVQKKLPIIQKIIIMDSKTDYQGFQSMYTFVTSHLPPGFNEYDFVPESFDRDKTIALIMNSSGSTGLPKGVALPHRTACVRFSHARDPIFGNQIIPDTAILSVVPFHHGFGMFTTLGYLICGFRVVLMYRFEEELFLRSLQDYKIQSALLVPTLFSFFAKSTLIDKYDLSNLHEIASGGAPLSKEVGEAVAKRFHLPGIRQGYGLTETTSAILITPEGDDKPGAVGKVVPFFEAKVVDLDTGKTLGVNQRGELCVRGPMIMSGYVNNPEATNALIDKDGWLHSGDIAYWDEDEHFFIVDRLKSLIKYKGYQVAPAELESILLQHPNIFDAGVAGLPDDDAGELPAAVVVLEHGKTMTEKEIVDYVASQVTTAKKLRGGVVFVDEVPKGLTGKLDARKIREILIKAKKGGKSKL
# [20] = ZM109 Env clade C HIV-1 fusion inhibitors, dose response, HeLa effector, CEM target cells, luciferase, cherry-pick (AID 652058); assay type: functional, cell-based
# [21] = cytotoxicity in HEK-293T NF-kB-Luc cells, dose response, cytotoxicity control for B/T-cell NF-kB inhibitor project, cell-based, uHTS hits (AID 489019); assay type: functional;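 further: IC50 reflects cytotoxicity as loss of cell viability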
# [22] = A Cell Based Secondary Assay To Explore Cytotoxicity of Compounds that Sensitize Mycobacterium Tuberculosis to Beta-Lactam Antibiotics.; assay type: functional
# BJ [23] = assay: cytotoxicity toward Ras-transformed BJeLR fibroblasts, dose response, cell-based, alamar blue fluorescence, cherrypicked samples (AID 2631); assay type: functional; details: Homo sapiens;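 further: confirmatory dose-response assay in RAS-dependent BJ fibroblasts engineered with TERT, LT and ST, with cytotoxicity read by fluorescence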
# BJ [24] = assay: cytotoxicity toward BJ-TERT-LT-ST fibroblasts, dose response, cell-based, RAS-independent, luminescence (AID 1935); assay type: functional; details: Homo sapiens;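 further: BJ fibroblasts immortalized with TERT plus LT and ST oncogenes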
# [25] = inhibitors of HIV Env-driven cell fusion, dose response, cherry-pick (AID 652057); assay type: functional, cell-based
# [26] = Luminescence-based counterscreen assay for KLF5 inhibitors: dose response cell-based high throughput screening assay to identify cytotoxic compounds using the IEC-6 intestinal epithelial cell line. [Related pubchem assays: 1700 (Primary screen.), 1834 (Confirmation screen.), 1858 (Summary AID.), 1905 (Counterscreen.)]; assay type: functional
# [27] = off-target signal loss in HeLa-CEM21 co-culture – HeLa F-luc CTL cells, cherry-picked, counter-screen for HIV-1 Env fusion inhibitor project, dose response (AID 652040); assay type: functional, cell-based;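 further: potency for signal decrease marking cytotoxic or nonspecific inhibition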
# [28] = CEM21 lymphoblast cell cytotoxicity, dose response, cytotoxicity control for viral fusion inhibitor project, CellTiter-Glo luminescence, cherry-picked (AID 652042); assay type: functional, cell-based;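 further: potency for signal decrease meaning cytotoxicity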
# Jurkat = assay: antigen receptor-induced NF-kB inhibitors, dose response, Jurkat, luciferase reporter, luminescence, B- and T-cell (AID 489004); assay type: functional, cell-based; details: Homo sapiens;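 further: NF-kB luciferase reporter Jurkat cells stimulated with PMA plus ionomycin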
# BJ [29] = assay: cells; assay type: functional, cell-based; details: Homo sapiens
# [30] = cytotoxicity toward DRD oncogenic fibroblasts, dose response, cell-based, non-viral oncogenic, luminescence (AID 1934); assay type: functional; details: Homo sapiens
# [31] = target: Dual specificity tyrosine-phosphorylation-regulated kinase 1A (Rattus norvegicus, UniProt Q63470); assay type: biochemical, Homo sapiens
# CAAX prenyl protease 1 = CAAX prenyl protease 1 (Saccharomyces cerevisiae S288c, UniProt P47154); assay: Ste24 protease inhibitors, dose response, biochemical, S. cerevisiae, plate reader, cherry-pick (AID 488815)
# CAAX prenyl protease 1, sequence (P47154 whole entry): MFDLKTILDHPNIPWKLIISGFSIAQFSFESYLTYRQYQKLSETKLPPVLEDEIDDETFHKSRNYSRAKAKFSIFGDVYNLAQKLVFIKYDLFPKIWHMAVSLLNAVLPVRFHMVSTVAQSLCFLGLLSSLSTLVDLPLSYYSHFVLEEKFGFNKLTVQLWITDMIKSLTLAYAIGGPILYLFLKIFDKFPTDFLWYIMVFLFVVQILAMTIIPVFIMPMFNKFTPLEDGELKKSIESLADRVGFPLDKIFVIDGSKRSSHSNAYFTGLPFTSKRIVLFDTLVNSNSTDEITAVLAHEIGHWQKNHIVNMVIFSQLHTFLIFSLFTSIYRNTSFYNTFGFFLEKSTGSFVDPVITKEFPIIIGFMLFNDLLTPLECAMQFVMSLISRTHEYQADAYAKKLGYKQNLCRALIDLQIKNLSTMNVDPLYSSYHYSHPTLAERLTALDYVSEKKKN
# Large T antigen, sequence (P03070 whole entry): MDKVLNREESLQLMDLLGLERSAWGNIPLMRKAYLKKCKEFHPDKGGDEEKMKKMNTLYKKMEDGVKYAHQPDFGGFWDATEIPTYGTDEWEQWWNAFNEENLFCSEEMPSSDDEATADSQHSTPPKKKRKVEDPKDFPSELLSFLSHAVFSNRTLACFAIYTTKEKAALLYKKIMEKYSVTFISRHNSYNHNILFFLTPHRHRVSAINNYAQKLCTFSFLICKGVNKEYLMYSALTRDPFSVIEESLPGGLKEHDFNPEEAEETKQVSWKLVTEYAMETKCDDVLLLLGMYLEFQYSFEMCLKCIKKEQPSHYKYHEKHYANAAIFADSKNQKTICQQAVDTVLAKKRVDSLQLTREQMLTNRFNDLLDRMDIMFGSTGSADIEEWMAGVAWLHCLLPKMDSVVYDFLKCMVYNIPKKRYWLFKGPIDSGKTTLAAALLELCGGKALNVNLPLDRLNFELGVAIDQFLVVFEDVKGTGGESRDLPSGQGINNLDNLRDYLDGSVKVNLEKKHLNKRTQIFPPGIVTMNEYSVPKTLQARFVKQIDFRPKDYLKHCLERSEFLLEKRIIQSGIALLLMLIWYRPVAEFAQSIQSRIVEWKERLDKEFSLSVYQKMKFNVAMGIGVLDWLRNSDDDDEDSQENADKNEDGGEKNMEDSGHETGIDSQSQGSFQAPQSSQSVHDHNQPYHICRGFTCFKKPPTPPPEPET
smiles,measurement,setting,value
CC(=O)c1cccc(S(=O)(=O)N2CCCC(c3nc(-c4ccc(C)o4)no3)C2)c1 (stereo unspecified),IC50,Large T antigen,36.4 µM (active)
same,EC50,[1],0.143 µM (active)
CN1OC[C@@H]2CN[C@H](c3ccc(-c4cc5ccccc5o4)cc3)C[C@@H]21,AC50,[2],> 70 µM (inactive)
same,AC50,HEK293 [3],0.0503 µM (active)
same,AC50,[4],< 0.26 µM (active)
same,AC50,[5],51.1 µM (active)
CCC(CN(C)C)Oc1cc(NCc2ccccc2)c2ncn(C(C)C)c2c1 (stereo unspecified),IC50,[6],7.98 µM (active)
CCc1ccc(S(=O)(=O)Nc2c(C)nc3ncnn3c2O)cc1,IC50,[7],> 67.5 µM (inactive)
same,IC50,HEK293 [8],> 67.5 µM (inactive)
COc1ccc(CNC(=O)c2c(N)n(CCCN3CCOCC3)c3nc4ccccc4nc23)cc1,AC50,Trypsin,10.5 µM (active)
same,AC50,CAAX prenyl protease 2 [9],23.9 µM (active)
same,AC50,CAAX prenyl protease 2 [10],22.9 µM (active)
same,EC50,[11],15.3 µM (active)
same,AC50,[12],6.56 µM (active)
same,EC50,[13],17.4 µM (active)
same,CC50,[14],24.5 µM (active)
same,IC50,Protein skinhead-1,> 100 µM (inactive)
COc1ccc(S(=O)(=O)Cc2ccc(C(=O)NC3CC3)o2)cc1,IC50,[7],> 67.6 µM (inactive)
same,IC50,HEK293 [8],> 67.6 µM (inactive)
COc1ccc(C(=O)Nc2nc3ccccc3s2)c(OC)c1,AC50,[2],33.5 µM (active)
same,AC50,[15],43.8 µM (active)
same,EC50,[16],1.54 µM (active)
same,AC50,[17],0.45 µM (active)
same,AC50,[18],0.664 µM (active)
same,EC50,[19],0.241 µM (active)
same,AC50,[20],6.04 µM (active)
same,AC50,[4],0.523 µM (active)
same,IC50,[21],> 80 µM (inactive)
same,CC50,[22],29.7 µM (active)
same,EC50,BJ [23],> 133 µM (inactive)
same,EC50,BJ [24],17.1 µM (active)
same,AC50,[25],0.757 µM (active)
same,IC50,[26],7.69 µM (active)
same,AC50,[27],< 0.26 µM (active)
same,AC50,[28],14.2 µM (active)
same,IC50,Jurkat,< 0.16 µM (active)
same,EC50,BJ [29],5.76 µM (active)
same,EC50,[30],7.2 µM (active)
Cc1ccc(C(=O)OCC(=O)Nc2nc(-c3ccccc3)cs2)cc1NC(=O)c1ccco1,EC50,[1],1.41 µM (active)
COc1ccc2c3c([nH]c2c1)C(C)=NCC3 [HARMALINE],AC50,[31],1.24 µM (active)
same,AC50,CAAX prenyl protease 1,2.77 µM (active)

# Source: ChEMBL document CHEMBL1201862, “PubChem BioAssay data set” (2004)
